In ChEMBL document CHEMBL4602611, “Discovery of 1,2,4-triazine-based derivatives as novel neddylation inhibitors and anticancer activity studies against gastric cancer MGC-803 cells” (Bioorg Med Chem Lett, 2020):
Active and inactive are the calls of the source. The calls are words filed in the database; no cut-off is given here.

What was measured:
MGC-803 [1] = test: Antiproliferative activity against human MGC803 cells assessed as inhibition of cell growth incubated for 48 hrs by MTT assay; assay type: functional, cell-based; details: for IC50: MGC-803, 48 h
PC-3 = test: Antiproliferative activity against human PC3 cells assessed as inhibition of cell growth incubated for 48 hrs by MTT assay; assay type: functional, cell-based; details: PC-3, 48 h
ECa-109 cell line = test: Antiproliferative activity against human EC109 cells assessed as inhibition of cell growth incubated for 48 hrs by MTT assay; assay type: functional, cell-based; details: ECa-109, 48 h
[2] = target: T1, NEDD8-activating enzyme E1 regulatory subunit (Homo sapiens) (UniProt Q13564); test: Inhibition of NAE-mediated neddylation in human MGC803 cells assessed as reduction in Nedd8-Cullin1 adduct formation by Western blot analysis; assay type: cell-based
T1 sequence (whole entry): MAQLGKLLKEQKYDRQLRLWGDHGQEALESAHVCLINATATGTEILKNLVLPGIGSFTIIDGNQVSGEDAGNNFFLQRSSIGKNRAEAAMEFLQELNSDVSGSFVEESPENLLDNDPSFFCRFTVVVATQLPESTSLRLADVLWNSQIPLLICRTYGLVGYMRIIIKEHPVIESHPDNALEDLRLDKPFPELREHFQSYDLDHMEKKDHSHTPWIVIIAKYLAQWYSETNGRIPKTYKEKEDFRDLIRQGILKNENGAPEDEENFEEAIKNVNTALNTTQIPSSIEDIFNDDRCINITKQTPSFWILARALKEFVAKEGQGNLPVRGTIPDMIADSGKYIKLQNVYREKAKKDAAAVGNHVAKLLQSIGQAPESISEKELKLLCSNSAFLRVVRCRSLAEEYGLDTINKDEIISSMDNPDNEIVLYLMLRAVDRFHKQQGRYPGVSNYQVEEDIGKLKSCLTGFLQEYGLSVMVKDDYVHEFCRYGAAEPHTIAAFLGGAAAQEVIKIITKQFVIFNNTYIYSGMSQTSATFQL

[3] = target: T1, NEDD8-activating enzyme E1 regulatory subunit (Homo sapiens); test: Inhibition of NAE (unknown origin)-mediated neddylation assessed as decrease in Nedd8-Ubcl2 adduct formation at 5 uM by Western blot analysis
[4] = target: T1, NEDD8-activating enzyme E1 regulatory subunit (Homo sapiens); test: (§1) Inhibition of NAE-mediated neddylation in human MGC803 cells assessed as reduction in Nedd8-Ubcl2 adduct formation incubated for 24 hrs by Western blot analysis; assay type: cell-based; details: MGC-803
[5] = target: T2, NEDD8-activating enzyme E1 regulatory subunit (Homo sapiens, UniProt Q13564); test: as §1; assay type: cell-based, MGC-803
T2 sequence (Q13564 whole entry): T1 sequence (whole entry)

[6] = target: T1, NEDD8-activating enzyme E1 regulatory subunit (Homo sapiens); test: Inhibition of NAE-mediated neddylation in human MGC803 cells assessed as reduction in Nedd8-Ubcl2 adduct formation at 5 uM incubated for 24 hrs by Western blot analysis; assay type: cell-based; details: MGC-803
[7] = target: T1, NEDD8-activating enzyme E1 regulatory subunit (Homo sapiens); test: Inhibition of NAE-mediated neddylation in human MGC803 cells assessed as reduction in Nedd8-Ubcl2 adduct formation at 10 uM incubated for 24 hrs by Western blot analysis relative to control; assay type: cell-based; details: MGC-803
[8] = target: T1, NEDD8-activating enzyme E1 regulatory subunit (Homo sapiens); test: Inhibition of NAE-mediated neddylation in human MGC803 cells assessed as reduction in Nedd8-Cullin3 adduct formation at 10 uM incubated for 24 hrs by Western blot analysis; assay type: cell-based; details: MGC-803
[9] = target: T1, NEDD8-activating enzyme E1 regulatory subunit (Homo sapiens); test: Inhibition of NAE-mediated neddylation in human MGC803 cells assessed as reduction in NAE1-Nedd8 adduct formation at 10 uM incubated for 24 hrs by Western blot analysis; assay type: cell-based; details: MGC-803
MGC-803 [10] = test: Increase in p21 protein expression in human MGC803 cells at 5 to 20 umol/l incubated for 24 hrs by Western blot analysis; assay type: functional, cell-based
MGC-803 [11] = test: Increase in ATF4 protein expression in human MGC803 cells at 5 to 20 umol/l incubated for 24 hrs by Western blot analysis; assay type: functional, cell-based
MGC-803 [12] = test: Increase in CHOP protein expression in human MGC803 cells at 5 to 20 umol/l incubated for 24 hrs by Western blot analysis; assay type: functional, cell-based
MGC-803 [13] = test: Increase in DR5 protein expression in human MGC803 cells at 5 to 20 umol/l incubated for 24 hrs by Western blot analysis; assay type: functional, cell-based
MGC-803 [14] = test: Increase in Noxa protein expression in human MGC803 cells at 5 to 20 umol/l incubated for 24 hrs by Western blot analysis; assay type: functional, cell-based
MGC-803 [15] = test: Inhibition of colony formation in human MGC803 cells at 0.5 uM incubated for 7 days by crystal violet staining based assay; assay type: functional, cell-based
MGC-803 [16] = test: Induction of cell cycle arrest in human MGC803 cells assessed as accumulation in G2/M phase at 5 to 20 umol/l incubated for 24 hrs by propidium iodide staining based flow cytometric analysis; assay type: functional
MGC-803 [17] = test: Induction of cell cycle arrest in human MGC803 cells assessed as fold change in accumulation in G2/M phase at 5 to 20 umol/l incubated for 24 hrs by propidium iodide staining based flow cytometric analysis relative to control; assay type: functional
MGC-803 [18] = test: Downregulation of Cyclin B1 protein expression in human MGC803 cells at 5 to 20 umol/l incubated for 24 hrs by Western blot analysis; assay type: functional, cell-based
MGC-803 [19] = test: Downregulation of CDK1 protein expression in human MGC803 cells at 5 to 20 umol/l incubated for 24 hrs by Western blot analysis; assay type: functional, cell-based
MGC-803 [20] = test: Induction of apoptosis in human MGC803 cells at 5 to 20 umol/l incubated for 48 hrs by AnnexinV-FITC/PI staining based flow cytometric analysis relative to control; assay type: functional
MGC-803 [21] = test: Upregulation in Bax protein expression in human MGC803 cells at 5 to 20 umol/l incubated for 48 hrs by Western blot analysis; assay type: functional, cell-based
MGC-803 [22] = test: Downregulation of XIAP protein expression in human MGC803 cells at 5 to 20 umol/l incubated for 48 hrs by Western blot analysis; assay type: functional, cell-based
MGC-803 [23] = test: Induction of apoptosis in human MGC803 cells assessed as increase in cleaved caspase9 expression at 5 to 20 umol/l incubated for 48 hrs by Western blot analysis; assay type: functional, cell-based
MGC-803 [24] = test: Induction of apoptosis in human MGC803 cells assessed as increase in cleaved caspase3 expression at 5 to 20 umol/l incubated for 48 hrs by Western blot analysis; assay type: functional, cell-based
MGC-803 [25] = test: Induction of apoptosis in human MGC803 cells assessed as increase in cleaved PARP expression at 5 to 20 umol/l incubated for 48 hrs by Western blot analysis; assay type: functional, cell-based
MGC-803 [26] = test: Antiproliferative activity against human MGC803 cells assessed as inhibition of cell growth at 10 umol/l measured within 48 hrs of incubation by MTT assay; assay type: functional, cell-based
MGC-803 [27] = test: Antiproliferative activity against human MGC803 cells assessed as fold increase in cell growth at 10 umol/l incubated for 48 hrs by MTT assay relative to control; assay type: functional
[28] = target: T1, NEDD8-activating enzyme E1 regulatory subunit (Homo sapiens); test: Inhibition of NAE (unknown origin)-mediated neddylation assessed as decrease in Nedd8-Ubcl2 adduct formation at 10 uM by Western blot analysis

`COc1cc(Nc2nc(Nc3ccc4c(ccn4C)c3)nnc2Cl)cc(OC)c1OC` showed an IC50 (MGC-803 [1]) of 28.1 µM, an IC50 (PC-3) of 48.5 µM and an IC50 (ECa-109 cell line) of 42.1 µM.

In the case of `O=c1[nH]cc(F)c(=O)[nH]1` [FLUOROURACIL], the IC50 (ECa-109 cell line) is reported as 21.2 µM.

With `COc1cc(Nc2nc(Nc3ccc4[nH]ccc4c3)nnc2Cl)cc(OC)c1OC` the inhibition (MGC-803 [1]) was “Dose-dependent effect”, the IC50 (MGC-803 [1]) was 8.22 µM and the IC50 (PC-3) was 9.28 µM. For the same compound, the IC50 (ECa-109 cell line) was 9.64 µM, the inhibition ([2]; MGC-803, TDE = time-dependent effect) was “Tde” and the inhibition [3] was “Active”. For the same compound, the inhibition [4] was “Dose-dependent effect”, the EC50 [5] was 3.56 µM and the inhibition [6] was “Active”. For the same compound, the inhibition [7] was 100%, the inhibition [8] was “Active” and the inhibition [9] was “Active”. The Activity (MGC-803 [10]) was “Active”, the Activity (MGC-803 [11]) was “Active” and the Activity (MGC-803 [12]) was “Active”. The Activity (MGC-803 [13]) was “Active”, the Activity (MGC-803 [14]) was “Active” and the inhibition (MGC-803 [15]) was “Active”. For the same compound, the Activity (MGC-803 [16]) was “Active”, the “fold change (FC)” value (MGC-803 [17]) was 2 and the inhibition (MGC-803 [18]) was “Active”. For the same compound, the inhibition (MGC-803 [19]) was “Active”, the Activity (MGC-803 [20]) was 60% and the Activity (MGC-803 [21]) was “Active”. The inhibition (MGC-803 [22]) was “Active”, the Activity (MGC-803 [23]) was “Active” and the Activity (MGC-803 [24]) was “Active”. For the same compound, the Activity (MGC-803 [25]) was “Active”, the Activity (MGC-803 [26]) was “Active” and the “fold change (FC)” value (MGC-803 [27]) was 1.3.

For `CCOC(=O)c1ccc(Nc2nnc(Cl)c(Nc3cc(OC)c(OC)c(OC)c3)n2)cc1`, the IC50 (MGC-803 [1]) was 53.6 µM, the IC50 (PC-3) was 58.5 µM and the IC50 (ECa-109 cell line) was 46.6 µM.

For `COc1cc(Nc2nc(Nc3ccc(Br)cc3)nnc2Cl)cc(OC)c1OC`, the IC50 (MGC-803 [1]) was 11.3 µM, the IC50 (PC-3) was 8.99 µM and the IC50 (ECa-109 cell line) was 41.6 µM.

For `COc1ccc(Nc2nnc(Cl)c(Nc3cc(OC)c(OC)c(OC)c3)n2)cc1`, the IC50 (MGC-803 [1]) was 18.9 µM, the IC50 (PC-3) was 13.5 µM and the IC50 (ECa-109 cell line) was 22.3 µM.

For `COc1cc(Nc2nc(Nc3ccccc3)nnc2Cl)cc(OC)c1OC`, the IC50 (MGC-803 [1]) was 8.75 µM, the IC50 (PC-3) was 9.75 µM and the IC50 (ECa-109 cell line) was 12.6 µM.

For `COc1cc(Nc2nc(Cl)nnc2Cl)cc(OC)c1OC`, the inhibition ([2]; MGC-803) was “Dose-dependent effect”.

For `COc1cc(Nc2nc(Nc3ccc(Cl)cc3)nnc2Cl)cc(OC)c1OC`, the IC50 (MGC-803 [1]) was 12.6 µM, the IC50 (PC-3) was 9.61 µM and the IC50 (ECa-109 cell line) was 32.6 µM.

`COc1cc(Nc2nc(Nc3ccc(C)cc3)nnc2Cl)cc(OC)c1OC` gave an IC50 (MGC-803 [1]) of 19.8 µM, an IC50 (PC-3) of 14.3 µM and an IC50 (ECa-109 cell line) of 27.3 µM.

Compound `COc1cccc(Nc2nnc(Cl)c(Nc3cc(OC)c(OC)c(OC)c3)n2)c1` has an IC50 (MGC-803 [1]) of 16.5 µM, an IC50 (PC-3) of 11.3 µM and an IC50 (ECa-109 cell line) of 15.9 µM.

`COc1cc(Nc2nnc(Cl)c(Nc3cc(OC)c(OC)c(OC)c3)n2)cc(OC)c1OC` was tested, and the IC50 (MGC-803 [1]) was 24.3 µM, the IC50 (PC-3) was 34.3 µM and the IC50 (ECa-109 cell line) was over 50 µM.

`COc1cc(Nc2nc(Nc3ccc(C(C)=O)cc3)nnc2Cl)cc(OC)c1OC` was tested, and the IC50 (MGC-803 [1]) was 13 µM, the IC50 (PC-3) was 38.6 µM and the IC50 (ECa-109 cell line) was 36.3 µM.

`COc1cc(Nc2nc(Nc3ccc(C(N)=O)cc3)nnc2Cl)cc(OC)c1OC` showed an IC50 (MGC-803 [1]) of 15.2 µM, an IC50 (PC-3) of 32.1 µM and an IC50 (ECa-109 cell line) of 42.4 µM.

With `NS(=O)(=O)OC[C@@H]1C[C@@H](n2ccc3c(N[C@H]4CCc5ccccc54)ncnc32)C[C@@H]1O` the inhibition [28] was “Active”.
